Here are results for five compounds from patent US6642004B2, “Method for measuring nucleotides” (FMC Corporation, priority 2000, dated 2003).

Like-named read-outs stand apart in the source and are kept apart here.

Assay [1] concerns Sf9 cells. Briefly: quantification of cAMP generated in Sf9 cells after compound treatment ([3H]cAMP competition for bovine adrenal binding protein, single vessel). It is filed as cell-based. The procedure: On the day of the experiment, four-day sold Sf9 cells for use in the first step, with cell density at about 5,000,000 to about 6,000,000 cells, were spun in a Biofuge 15 centrifuge (available from Heneaus Instruments, Germany at 1310 rpm (500 g) for five minutes. After this time, the supernatant was discarded and sufficient Sf9 serum free medium (Sf900 II SFM) was added to the resulting cell pellet give a final concentration of 2,000,000 cells /ml. To these cells was added 0.02 ml of Solution J. Upon completion of addition, the resulting solution was gently mixed and then incubated at ambient temperature for 40 minutes, for use, below .
This method was performed in the manner disclosed in Example 1 except that synephrine was used rather than amitraz, and the concentrations of the synephrine dilutions were in the range of 0.00369 mM to 1.0 mM rather than 0.00123 mM to 0.3 mM.
This method was performed in the manner disclosed in Example 1 except that DL-octopamine was used rather than amitraz, and the concentrations of the DL-octopamine dilutions were in the range of about 0.0123 mM to about 3.0 mM rather than about 0.00123 mM to about 0.3 mM.
This method was performed in the manner disclosed in Example 1 except that DCDM was used rather than amitraz, and the concentrations of the DCDM dilutions were in the range of 0.000123 mM to about 0.03 mM rather than 0.00123 mM to about 0.3 mM.

The test system of assay [2] is protein derived from a bovine adrenal gland.
Experimental: Thereafter, 50 μl of the above-prepared Sf9 cell solution was added to all of the wells. The microplates were incubated at ambient temperature for 45 minutes. After this time, the Sf9 cells were lysed by adding 50 μl of Solution H. The microplates were incubated a second time at ambient temperature for 15 to 20 minutes. After this time, 25 μl of Solution R followed by 25 μl of Solution Q were added to the microplates. The microplates were incubated for a third time at ambient temperature with shaking at 125 rpm for 90 minutes. The resulting mixtures were filtered under reduced pressure through glass fiber filtermats, which were soaked in 500 ml of Solution G for about 30 minutes prior to use. The filtermats were washed for ten seconds with ice-cold Solution F and then, dried at 60° C. for 45 to 60 minutes in a Stabil-Therm® oven (available from Blue M Electric Co., Blue Island, Ill.). After this time, the amount of the radiolabeled 3′,5′-monophosphate/binding protein complex bound to the filtermats was determined by the aforesaid quantification method.
[3] abbreviates: 0.000111 mM in the synephrine series.

Take `CN=CNc1ccc(Cl)cc1C` [DCDM, demethylchlordimeform]: the % Inhibition – broadly, the drop in the measured response relative to a control, in per cent – in assay [1] (0.0000041 mM) was 11.7%; in assay [1] (0.0000123 mM), 23.1%; in assay [1] (0.000037 mM), 38%; in assay [1] (0.000111 mM), 58.3%; in assay [1] (0.000333 mM) it was 77.1%; in assay [1] (0.001 mM), 84.1%. Moreover, the “Specific Counts (dpm)” value in assay [1] (0.0000041 mM) worked out at 5687.8 dpm; in assay [1] (0.0000123 mM) it was 4954.7 dpm; in assay [1] (0.000037 mM), 3993.7 dpm; in assay [1] (0.000111 mM) it was 2689.4 dpm; in assay [1] (0.000333 mM), 1472.8 dpm; in assay [1] (0.001 mM), 1026.2 dpm. The “Total Counts (dpm) Determined” value was 6512.1 dpm in assay [1] (0.0000041 mM); 5779.0 dpm in assay [1] (0.0000123 mM); 4818 dpm in assay [1] (0.000037 mM); 3513.7 dpm in assay [1] (0.000111 mM); 2297.1 dpm in assay [1] (0.000333 mM); 1850.5 dpm in assay [1] (0.001 mM).
In the case of `Cc1ccc(/N=C/N(C)/C=N/c2ccc(C)cc2C)c(C)c1` [Amitraz, amitraz], in assay [1] (0.000041 mM), the “Specific Counts (dpm)” value stood at 6020.4 dpm, the “Total Counts (dpm) Determined” value is listed as 6899.4 dpm and at 0.041 µM the inhibition was 2.5%. In assay [1] (0.000123 mM), the “Specific Counts (dpm)” value came out at 5130.2 dpm; the “Total Counts (dpm) Determined” value is reported as 6009.2 dpm; the inhibition (commonly the relative decrease from the control value, in per cent) at 0.123 µM came out at 16.9%. Moreover, in assay [1] (0.00037 mM), the “Specific Counts (dpm)” value is 3939.2 dpm, the “Total Counts (dpm) Determined” value came out at 4818.2 dpm and the inhibition at 0.37 µM was 36.2%. For the same compound, in assay [1] (0.00111 mM), the “Specific Counts (dpm)” value worked out at 2562.5 dpm, the “Total Counts (dpm) Determined” value stood at 3441.5 dpm and the inhibition at 1.11 µM was determined as 58.5%. For the same compound, in assay [1] (0.00333 mM), the “Specific Counts (dpm)” value was found to be 1428.2 dpm, the “Total Counts (dpm) Determined” value is 2307.2 dpm and at 3.33 µM the inhibition was 76.9%. Besides, in assay [1] (0.01 mM), the “Specific Counts (dpm)” value amounted to 1049.5 dpm, the “Total Counts (dpm) Determined” value is 1928.5 dpm and the inhibition at 10 µM was determined as 83%.
With `CNCC(O)c1ccc(O)cc1` (centres unmarked) [Synephrine, synephrine], in assay [1] (setting [3]), the “Specific Counts (dpm)” value came out at 4516.2 dpm and the “Total Counts (dpm) Determined” value came out at 5487 dpm. In addition, in assay [1] (0.000123 mM), the “Specific Counts (dpm)” value was 6081.7 dpm, the “Total Counts (dpm) Determined” value is given as 7052.5 dpm and 0.123 µM produced 3.1% inhibition. In assay [1] (0.00037 mM), the “Specific Counts (dpm)” value was found to be 5260 dpm, the “Total Counts (dpm) Determined” value amounted to 6230.8 dpm and testing at 0.37 µM gave an inhibition of 16.2%. Further, in assay [1] (0.00333 mM), the “Specific Counts (dpm)” value came to 2732.7 dpm, the “Total Counts (dpm) Determined” value was 3703.5 dpm and the inhibition at 3.33 µM turned out to be 56.4%. For the same compound, in assay [1] (0.011 mM), the “Specific Counts (dpm)” value turned out to be 1605.1 dpm, the “Total Counts (dpm) Determined” value was found to be 2575.9 dpm and testing at 11 µM gave an inhibition of 74.4%. Besides, in assay [1] (0.033 mM), the “Specific Counts (dpm)” value is on record as 1074.6 dpm, the “Total Counts (dpm) Determined” value is recorded as 2045.4 dpm and at 33 µM the inhibition was 82.9%.
For `Nc1ncnc2c1ncn2[C@@H]1O[C@@H]2COP(=O)(O)O[C@H]2[C@H]1O` [cAMP Standard, cyclic adenosine 3′,5′-monophosphate], the “% Inhibition” value in assay [2] (0.0000026 mM) is 20.3%; in assay [2] (0.0000078 mM) it was 37.5%; in assay [2] (0.000023 mM) it was 61.7%; in assay [2] (0.00007 mM), 78.8%; in assay [2] (0.00021 mM) it was 90.4%; in assay [2] (0.00064 mM) it was 95.5%. In addition, the “Specific Counts (dpm)” value in assay [2] (0.0000026 mM) is on record as 5398.5 dpm; in assay [2] (0.0000078 mM) it was 4234.8 dpm; in assay [2] (0.000023 mM), 2595.8 dpm; in assay [2] (0.00007 mM), 1435.8 dpm; in assay [2] (0.00021 mM), 648.8 dpm; in assay [2] (0.00064 mM) it was 307.6 dpm. Besides, the “Total Counts (dpm) Determined” value in assay [2] (0.0000026 mM) is 5791 dpm; in assay [2] (0.0000078 mM), 4627.3 dpm; in assay [2] (0.000023 mM), 2988.3 dpm; in assay [2] (0.00007 mM), 1828.3 dpm; in assay [2] (0.00021 mM), 1041.3 dpm; in assay [2] (0.00064 mM), 700.3 dpm.
In the case of `NCC(O)c1ccc(O)cc1` (racemic) [DL-octopamine], in assay [1] (0.00041 mM), the “Specific Counts (dpm)” value was determined as 5942.2 dpm, the “Total Counts (dpm) Determined” value is 6899 dpm and the inhibition at 0.41 µM stood at 6.9%. In assay [1] (0.00123 mM), the “Specific Counts (dpm)” value is given as 5639.1 dpm, the “Total Counts (dpm) Determined” value amounted to 6595.9 dpm and testing at 1.23 µM gave an inhibition of 11.7%. Moreover, in assay [1] (0.0037 mM), the “Specific Counts (dpm)” value is on record as 4952.4 dpm, the “Total Counts (dpm) Determined” value is on record as 5909.2 dpm and at 3.7 µM the inhibition was 22.4%. Further, in assay [1] (0.0111 mM), the “Specific Counts (dpm)” value is reported as 3295.5 dpm, the “Total Counts (dpm) Determined” value amounted to 4252.3 dpm and testing at 11.1 µM gave an inhibition of 48.4%. Moreover, in assay [1] (0.0333 mM), the “Specific Counts (dpm)” value is listed as 1934.3 dpm, the “Total Counts (dpm) Determined” value is on record as 2891.1 dpm and the inhibition at 33.3 µM is 69.7%. Moreover, in assay [1] (0.1 mM), the “Specific Counts (dpm)” value is 1267.9 dpm, the “Total Counts (dpm) Determined” value was 2224.7 dpm and the inhibition at 100 µM turned out to be 80.1%.
